According to patent publication US20230088644A1, “COMPOSITION FOR INDUCING DIFFERENTIATION INTO INSULIN-PRODUCING CELLS, AND USE THEREOF” (SEOUL NATIONAL UNIVERSITY R&DB FOUNDATION, priority 2020, published 2023):
Like-named read-outs stand apart in the source and are kept apart here.

Experiments:
[1] = system: human umbilical cord blood cells; format: cell-based
Method: Umbilical cord blood-derived mononuclear cells were freshly isolated using Ficoll-gradient protocol and suspended in a lysis solution (BD Pharmingen) to remove red blood cells.
Differentiation was induced by treating (priming) with putrescine in the same manner as in the method of Example 1.2, except that putrescine was added to a concentration of 1 mM or 5 mM, and the gene expression levels for insulin (INS) and factors (MAFA, NEUROG3) that promote the differentiation into insulin-producing beta cells were measured by performing quantitative real time PCR in the same manner as in the method of Example 1.2.
(§1) Samples were divided into (1) putrescine alone-treated group (5 mM), (2) putrescine (5 mM) and glucosamine (5 mM)-co-treated group, (3) putrescine (5 mM), glucosamine (5 mM), and nicotinamide (10 mM)-co-treated group, and (4) control (non-treated group). Umbilical cord blood cells (prepared in the same manner as in Example 1.3) and mouse bone marrow cells (prepared in the same manner as in Example 1.1) were cultured in suspension to induce the differentiation into insulin-producing cells.
(§2) On day 6 after priming the umbilical cord blood cells or mouse bone marrow cells for differentiation, total RNA was extracted to perform quantitative real-time PCR, similarly to the method of Example 1.2, and the mRNA expression of insulin and beta cell differentiation-related genes (MAFA, PDX1, or NEUROG3) was determined, as shown in FIGS. 4 (in primed umbilical cord blood cells) and 5 (in primed mouse bone marrow cells).
Umbilical cord blood cells were isolated in the same manner as in Example 1.3, and the differentiation effect on culture medium was determined. […] On day 6 after the culture, the expression levels of genes were compared in the cells in which differentiation was induced in the DMEM or CMRL1066 culture medium, respectively, using RT-PCR and quantitative real-time PCR. The conditions for quantitative real-time PCR were the same as in Example 1.2, and RT-PCR was performed with the following steps; 1) initial denaturation of 94° C. for 5 minutes; 2) amplification of 94° C. for 30 seconds, 60° C. for 30 seconds, and 72° C. for 1 minute by repeating the cycle 30 times; 3) final extension of 72° C. for 10 minutes.
Cells were collected on day 6 after the culture to confirm the appearance of insulin-producing cells.

[2] = system: mouse bone marrow cells; experiment: Differentiation of mouse bone marrow cells into insulin-producing cells, RT-PCR / quantitative real-time PCR; format: cell-based; conditions: for insulin expression compared to the control: 10 mM each, 6 days, DMEM
Method: Mouse bone marrow cells were isolated from 8-week-old male C57BL/6 mice (Orientbio Inc.) in the same manner as in Example 1.1. Bone marrow cells in DMEM culture medium (Dulbecco's Modified Eagle's Medium) (standard medium) containing 5.5 mM glucose, 10% FBS, and 1% antibiotics were seeded at 5×10^6 cells/ml into a 12-well non-coated plate, treated with glucosamine (GlcN) and putrescine (Put) to a concentration of 10 mM each or together, and cultured for 6 days in suspension for differentiation.
To investigate whether or not insulin-producing cells appeared, the gene expression levels of insulin (INS), MAFA, PDX-1, and NEUROG3 were measured by a quantitative real-time PCR method, as in the method of Example 1.2, which are shown in FIG. 3.
as §1, §2

[3] = system: human bone marrow cells; conditions: 5 mM putrescine, 6 days, DMEM; compared to control without putrescine
[4] = system: umbilical cord blood cells; experiment: Insulin secretion of differentiated umbilical cord blood cells, insulin ELISA; conditions: BP-1-102 added on day 4; primed 6 days, then 3 days in CMRL1066 with 11 mM glucose; supernatant ELISA
[5] = added to 5 mM putrescine, 5 mM glucosamine, 10 mM nicotinamide in CMRL1066, JSI-124 0.1 μM, CPT 1 μM, BP-1-102 10 μM, day 6

NCCCCN [putrescine, 1,4-diaminobutane]
mRNA expression of beta cell-specific genes (INS, MAFA, and NEUROG3) ([1]; 5 mM putrescine, 6 days, DMEM, compared to control cells without putrescine): significantly increased
gene expression levels for insulin and the factors that promote the beta cell differentiation ([1]; putrescine at a concentration of 5 mM or more (0.1 to 20 mM tested), 6 days): significantly increased
insulin expression compared to the control [2]: 4.3 fold
mRNA expression of insulin (INS), MAFA, PDX1, and NEUROG3 [3]: significantly increased

CN(CC(=O)N(Cc1ccc(C2CCCCC2)cc1)c1ccc(C(=O)O)c(O)c1)S(=O)(=O)c1c(F)c(F)c(F)c(F)c1F [BP-1-102]
mRNA expression levels of insulin and beta cell differentiation-related genes, order among STAT3 inhibitors [1]: significantly increased in the order of CPT <JSI-124<BP-1-102
mRNA expression of insulin compared to treatment only with glucosamine, putrescine, and nicotinamide [1]: ≥ 3 fold
insulin secretion compared to only three differentiation-inducing factors (glucosamine, putrescine, and nicotinamide) [4]: ≥ 10 fold

C[C@H]1COC2=C1C(=O)C(=O)c1c2ccc2c1CCCC2(C)C [CPT]
mRNA expression levels of insulin and beta cell differentiation-related genes, order among STAT3 inhibitors [1, 5]: significantly increased in the order of CPT <JSI-124<BP-1-102

CC(C)(O)/C=C/C(=O)[C@](C)(O)C1[C@H](O)C[C@@]2(C)[C@@H]3CC=C4C(C=C(O)C(=O)C4(C)C)[C@]3(C)C(=O)C[C@]12C (stereo partly drawn) [JSI-124]
mRNA expression levels of insulin and beta cell differentiation-related genes, order among STAT3 inhibitors [1, 5]: significantly increased in the order of CPT <JSI-124<BP-1-102
mRNA expression levels of insulin (INS) and beta cell differentiation-related genes (PDX1, NEUROG3, or NEUROD1) ([2]; 100 nM added on day 4 after the culture, compared to treatment at other time points (day 0, 2)): significantly increased
expression levels of genes promoting differentiation into insulin-producing cells ([2]; STAT3 inhibitor 100 nM added on day 0, 2 or 4 to glucosamine, putrescine and nicotinamide in CMRL 1066, collected day 6): increased

N[C@H]1C(O)O[C@H](CO)[C@@H](O)[C@@H]1O (stereo partly drawn) [glucosamine]
insulin expression compared to the control [2]: 2 fold
